This is an account of results in PubChem BioAssay (NCI).

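The compound was tested at five concentrations on cells cultured in 96-well plates, with a 48-hour exposure period. GI50 = concentration required for 50% inhibition of growth. TGI marks complete inhibition of growth.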

Some test systems named below: ACHN renal; CAKI-1 renal; COLO 205 colon; HCT-116 colon; HOP-92 NSCLC; KM12 colon; LOX IMVI melanoma; NCI-H226 lung; U251 CNS; UACC-62 melanoma.
Common to all, as to assay: growth of human tumour cells (NCI), 48 h

`CCC[CH2][Sn]([CH2]CCC)([O]C(=O)c1ccc(OC)c(OC)c1OC)[O][Sn]([CH2]CCC)([CH2]CCC)[O]C(=O)c1ccc(OC)c(OC)c1OC`: the GI50 in the assay with ACHN renal is 0.259 µM; in the assay with CAKI-1 renal, 0.0961 µM; in the assay with COLO 205 colon it was 0.27 µM; with HCT-116 colon it was 0.276 µM; in the assay on HOP-92 NSCLC, 0.159 µM; in the assay with KM12 colon, 0.859 µM. In addition, the GI50 was 0.134 µM in the assay with LOX IMVI melanoma, 0.33 µM with NCI-H226 lung, 0.274 µM with U251 CNS and 0.164 µM with UACC-62 melanoma. Besides, the TGI with ACHN renal is 0.583 µM; with CAKI-1 renal it was 0.506 µM; in the assay with COLO 205 colon, 0.917 µM; in the assay with HCT-116 colon, 0.833 µM; in the assay on HOP-92 NSCLC, 0.554 µM; in the assay on KM12 colon it was 2.31 µM. The TGI is 0.292 µM in the assay on LOX IMVI melanoma, 0.89 µM in the assay on NCI-H226 lung, 1.1 µM in the assay with U251 CNS and 0.504 µM in the assay with UACC-62 melanoma.
In the case of `O=c1c(F)cn(Cc2ccc(C34CC5CC(CC(C5)C3)C4)c(O)c2)c(=O)n1Cc1ccc(C23CC4CC(CC(C4)C2)C3)c(O)c1`, the GI50 with ACHN renal is 13.5 µM; with CAKI-1 renal, 17.5 µM; with COLO 205 colon, 18 µM; in the assay on HCT-116 colon, 11.1 µM; in the assay with HOP-92 NSCLC, 12.4 µM; in the assay on KM12 colon, 15.5 µM. For the same molecule, the GI50 in the assay on LOX IMVI melanoma is 6.98 µM; in the assay on NCI-H226 lung it was 12.9 µM; in the assay with U251 CNS, 6.89 µM; in the assay on UACC-62 melanoma, 15.9 µM. Moreover, the TGI with ACHN renal worked out at 26.3 µM; with CAKI-1 renal, 31.6 µM; in the assay with COLO 205 colon, 37.5 µM; in the assay with HCT-116 colon, 25 µM; in the assay with HOP-92 NSCLC, 28.7 µM; in the assay with KM12 colon it was 32.8 µM. Moreover, the TGI came to 20 µM in the assay on LOX IMVI melanoma, 26.1 µM with NCI-H226 lung, 19.5 µM in the assay with U251 CNS and 29.5 µM in the assay with UACC-62 melanoma.
For `CC(C)C1=Cc2ccc3c(c2C(=O)C1=O)CCCC3(C)C`, the TGI in the assay on ACHN renal came to 13 µM; in the assay with CAKI-1 renal it was 6.69 µM; with COLO 205 colon it was 14.5 µM; in the assay with HCT-116 colon, 3.33 µM; with HOP-92 NSCLC it was 9.79 µM; in the assay with KM12 colon, 33.1 µM. Further, the TGI in the assay on LOX IMVI melanoma is 24.7 µM; in the assay on NCI-H226 lung, 35.9 µM; in the assay on U251 CNS, 27.2 µM; in the assay on UACC-62 melanoma it was 15.2 µM.
